# ChEMBL document CHEMBL1201862, “PubChem BioAssay data set” (2004)
#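 Five concentrations, 48 hours, 96-well plates. Abbreviation: GI50, concentration required for 50% inhibition of growth.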 Active and inactive are the calls of the source. Rule as the data show it: active = GI50 up to about 1.1 µM and inactive = higher.
# Key:
# Experiment in all cases: NCI-60 cell line screen, 48 h
# CCRF-CEM = test system: CCRF-CEM
# IGROV-1 = test system: IGROV-1
# RXF 393 = test system: RXF 393
# OVCAR-8 = test system: OVCAR-8
# SK-OV-3 = test system: SK-OV-3
# SF-295 = test system: SF-295
# U-251 = test system: U-251
# 786-0 = test system: 786-0
# SR = test system: SR
# A549 = test system: A549
# SK-MEL-2 = test system: SK-MEL-2
# TK-10 = test system: TK-10
# NCI-H460 = test system: NCI-H460
# SNB-19 = test system: SNB-19
# PC-3 = test system: PC-3
# MDA-MB-231 = test system: MDA-MB-231
# LOX IMVI = test system: LOX IMVI
# UACC-257 = test system: UACC-257
# DU-145 = test system: DU-145
# OVCAR-3 = test system: OVCAR-3
# HL-60 = test system: HL-60
# SF-539 = test system: SF-539
# SK-MEL-28 = test system: SK-MEL-28
# M14 = test system: M14
# OVCAR-5 = test system: OVCAR-5
# SNB-75 = test system: SNB-75
# UACC-62 = test system: UACC-62
# SF-268 = test system: SF-268
# SK-MEL-5 = test system: SK-MEL-5
# HOP-92 = test system: HOP-92
# Hs-578T = test system: Hs-578T
# HCC 2998 = test system: HCC 2998
# A498 = test system: A498
# MCF7 = test system: MCF7
# SW-620 = test system: SW-620
# KM12 = test system: KM12
# EKVX = test system: EKVX
# NCI-H226 = test system: NCI-H226
# HOP-62 = test system: HOP-62
# Malme-3M = test system: Malme-3M
# MDA-MB-435 = test system: MDA-MB-435
# UO-31 = test system: UO-31
# CAKI-1 = test system: CAKI-1
# T47D = test system: T47D
# COLO 205 = test system: COLO 205
# NCI/ADR-RES = test system: NCI/ADR-RES
# NCI-H522 = test system: NCI-H522
# OVCAR-4 = test system: OVCAR-4
# K562 = test system: K562
# HT-29 = test system: HT-29
# HCT-15 = test system: HCT-15
# MDA-N = test system: MDA-N
# NCI-H23 = test system: NCI-H23
# ACHN = test system: ACHN
# SN12C = test system: SN12C
# BT-549 = test system: BT-549
# HCT-116 = test system: HCT-116
# MOLT-4 = test system: MOLT-4
# RPMI-8226 = test system: RPMI-8226
smiles,measurement,setting,value
CCOC(=O)/C=C(/C(=O)OCC)n1ccc(=O)n(CC(=O)OCC)c1=O,GI50,CCRF-CEM,0.169 µM (active)
same,GI50,IGROV-1,1.61 µM (inactive)
same,GI50,RXF 393,1.15 µM (inactive)
same,GI50,OVCAR-8,2.39 µM (inactive)
same,GI50,SK-OV-3,14.4 µM (inactive)
same,GI50,SF-295,14 µM (inactive)
same,GI50,U-251,2.56 µM (inactive)
same,GI50,786-0,0.412 µM (active)
same,GI50,SR,1.35 µM (inactive)
same,GI50,A549,6.17 µM (inactive)
same,GI50,SK-MEL-2,4.65 µM (inactive)
same,GI50,TK-10,1.23 µM (inactive)
same,GI50,NCI-H460,3.89 µM (inactive)
same,GI50,SNB-19,10.8 µM (inactive)
same,GI50,PC-3,1.67 µM (inactive)
same,GI50,MDA-MB-231,2.04 µM (inactive)
same,GI50,LOX IMVI,0.869 µM (active)
same,GI50,UACC-257,2.44 µM (inactive)
same,GI50,DU-145,5.01 µM (inactive)
same,GI50,OVCAR-3,1.1 µM (active)
same,GI50,HL-60,0.143 µM (active)
same,GI50,SF-539,2.96 µM (inactive)
same,GI50,SK-MEL-28,1.68 µM (inactive)
same,GI50,M14,1.37 µM (inactive)
same,GI50,OVCAR-5,1.67 µM (inactive)
same,GI50,SNB-75,2.48 µM (inactive)
same,GI50,UACC-62,1.64 µM (inactive)
same,GI50,SF-268,3.11 µM (inactive)
same,GI50,SK-MEL-5,2.36 µM (inactive)
same,GI50,HOP-92,0.251 µM (active)
same,GI50,Hs-578T,4.9 µM (inactive)
same,GI50,HCC 2998,2.36 µM (inactive)
same,GI50,A498,14.8 µM (inactive)
same,GI50,MCF7,0.471 µM (active)
same,GI50,SW-620,0.265 µM (active)
same,GI50,KM12,2.57 µM (inactive)
same,GI50,EKVX,1.89 µM (inactive)
same,GI50,NCI-H226,2.22 µM (inactive)
same,GI50,HOP-62,17.2 µM (inactive)
same,GI50,Malme-3M,0.668 µM (active)
same,GI50,MDA-MB-435,1.64 µM (inactive)
same,GI50,UO-31,1.63 µM (inactive)
same,GI50,CAKI-1,0.146 µM (active)
same,GI50,T47D,0.57 µM (active)
same,GI50,COLO 205,0.284 µM (active)
same,GI50,NCI/ADR-RES,2.63 µM (inactive)
same,GI50,NCI-H522,0.196 µM (active)
same,GI50,OVCAR-4,1.84 µM (inactive)
same,GI50,K562,0.348 µM (active)
same,GI50,HT-29,1.58 µM (inactive)
same,GI50,HCT-15,0.463 µM
same,GI50,MDA-N,2.44 µM (inactive)
same,GI50,NCI-H23,1.78 µM (inactive)
same,GI50,ACHN,0.57 µM (active)
same,GI50,SN12C,1.1 µM (active)
same,GI50,BT-549,2.08 µM (inactive)
same,GI50,HCT-116,1.01 µM (active)
same,GI50,MOLT-4,0.243 µM (active)
O=C1NC(=O)/C(=C/c2ccc(S(=O)(=O)N/N=C\C(O)C(O)C(O)C(O)CO)cc2)N1 (configuration not stated),GI50,CCRF-CEM,> 100 µM (inactive)
same,GI50,IGROV-1,> 100 µM (inactive)
same,GI50,RXF 393,> 100 µM (inactive)
same,GI50,OVCAR-8,> 100 µM (inactive)
same,GI50,SK-OV-3,> 100 µM (inactive)
same,GI50,SF-295,> 100 µM (inactive)
same,GI50,U-251,> 100 µM (inactive)
same,GI50,786-0,> 100 µM (inactive)
same,GI50,SR,> 100 µM (inactive)
same,GI50,A549,> 100 µM (inactive)
same,GI50,SK-MEL-2,> 100 µM (inactive)
same,GI50,TK-10,> 100 µM (inactive)
same,GI50,NCI-H460,> 100 µM (inactive)
same,GI50,SNB-19,> 100 µM (inactive)
same,GI50,PC-3,> 100 µM (inactive)
same,GI50,MDA-MB-231,> 100 µM (inactive)
same,GI50,LOX IMVI,> 100 µM (inactive)
same,GI50,UACC-257,> 100 µM (inactive)
same,GI50,DU-145,> 100 µM (inactive)
same,GI50,OVCAR-3,> 100 µM (inactive)
same,GI50,HL-60,> 100 µM (inactive)
same,GI50,SK-MEL-28,> 100 µM (inactive)
same,GI50,M14,> 100 µM (inactive)
same,GI50,OVCAR-5,> 100 µM (inactive)
same,GI50,SNB-75,> 100 µM (inactive)
same,GI50,UACC-62,> 100 µM (inactive)
same,GI50,SF-268,> 100 µM (inactive)
same,GI50,SK-MEL-5,> 100 µM (inactive)
same,GI50,HOP-92,> 100 µM (inactive)
same,GI50,Hs-578T,> 100 µM (inactive)
same,GI50,HCC 2998,> 100 µM (inactive)
same,GI50,A498,> 100 µM (inactive)
same,GI50,MCF7,> 100 µM (inactive)
same,GI50,SW-620,> 100 µM (inactive)
same,GI50,KM12,> 100 µM (inactive)
same,GI50,EKVX,> 100 µM (inactive)
same,GI50,NCI-H226,> 100 µM (inactive)
same,GI50,HOP-62,> 100 µM (inactive)
same,GI50,Malme-3M,> 100 µM (inactive)
same,GI50,MDA-MB-435,> 100 µM (inactive)
same,GI50,UO-31,> 100 µM (inactive)
same,GI50,CAKI-1,> 100 µM (inactive)
same,GI50,T47D,> 100 µM (inactive)
same,GI50,COLO 205,> 100 µM (inactive)
same,GI50,NCI/ADR-RES,> 100 µM (inactive)
same,GI50,OVCAR-4,> 100 µM (inactive)
same,GI50,K562,> 100 µM (inactive)
same,GI50,HT-29,> 100 µM (inactive)
same,GI50,HCT-15,> 100 µM
same,GI50,RPMI-8226,> 100 µM (inactive)
same,GI50,MDA-N,> 100 µM (inactive)
same,GI50,NCI-H23,> 100 µM (inactive)
same,GI50,ACHN,> 100 µM (inactive)
same,GI50,SN12C,> 100 µM (inactive)
same,GI50,BT-549,> 100 µM (inactive)
same,GI50,HCT-116,> 100 µM (inactive)
same,GI50,MOLT-4,> 100 µM (inactive)
N#Cc1ccc(-c2nc3c(N)nc(-c4ccccc4)nc3o2)cc1,GI50,CCRF-CEM,> 10 µM (inactive)
same,GI50,IGROV-1,> 100 µM (inactive)
same,GI50,RXF 393,23.8 µM (inactive)
same,GI50,OVCAR-8,12.9 µM (inactive)
same,GI50,SF-295,51.1 µM (inactive)
same,GI50,U-251,5.11 µM (inactive)
same,GI50,786-0,> 100 µM (inactive)
same,GI50,SR,> 100 µM (inactive)
same,GI50,A549,88.7 µM (inactive)
same,GI50,SK-MEL-2,> 100 µM (inactive)
same,GI50,TK-10,> 100 µM (inactive)
same,GI50,NCI-H460,> 100 µM (inactive)
same,GI50,SNB-19,55.1 µM (inactive)
same,GI50,PC-3,> 100 µM (inactive)
same,GI50,MDA-MB-231,13.3 µM (inactive)
same,GI50,LOX IMVI,> 100 µM (inactive)
same,GI50,UACC-257,> 100 µM (inactive)
same,GI50,DU-145,84.1 µM (inactive)
same,GI50,OVCAR-3,61.4 µM (inactive)
same,GI50,HL-60,> 100 µM (inactive)
same,GI50,SF-539,5.6 µM (inactive)
same,GI50,SK-MEL-28,> 100 µM (inactive)
same,GI50,M14,> 100 µM (inactive)
same,GI50,OVCAR-5,> 100 µM (inactive)
same,GI50,SNB-75,72.9 µM (inactive)
same,GI50,UACC-62,> 100 µM (inactive)
same,GI50,SF-268,> 100 µM (inactive)
same,GI50,SK-MEL-5,> 100 µM (inactive)
same,GI50,HOP-92,31.5 µM (inactive)
same,GI50,Hs-578T,> 100 µM (inactive)
same,GI50,HCC 2998,> 100 µM (inactive)
same,GI50,A498,> 100 µM (inactive)
same,GI50,MCF7,> 100 µM (inactive)
same,GI50,SW-620,> 100 µM (inactive)
same,GI50,KM12,> 100 µM (inactive)
same,GI50,EKVX,> 100 µM (inactive)
same,GI50,NCI-H226,> 100 µM (inactive)
same,GI50,HOP-62,19.7 µM (inactive)
same,GI50,MDA-MB-435,> 100 µM (inactive)
same,GI50,UO-31,> 100 µM (inactive)
same,GI50,CAKI-1,> 100 µM (inactive)
same,GI50,T47D,> 100 µM (inactive)
same,GI50,COLO 205,> 100 µM (inactive)
same,GI50,NCI/ADR-RES,40.3 µM (inactive)
same,GI50,NCI-H522,25 µM (inactive)
same,GI50,OVCAR-4,17.3 µM (inactive)
same,GI50,K562,> 100 µM (inactive)
same,GI50,HT-29,> 100 µM (inactive)
same,GI50,HCT-15,> 100 µM
same,GI50,RPMI-8226,> 100 µM (inactive)
same,GI50,MDA-N,> 100 µM (inactive)
same,GI50,NCI-H23,> 100 µM (inactive)
same,GI50,ACHN,26.9 µM (inactive)
same,GI50,SN12C,> 100 µM (inactive)
same,GI50,BT-549,> 100 µM (inactive)
same,GI50,HCT-116,31.8 µM (inactive)
same,GI50,MOLT-4,> 100 µM (inactive)
